{
  "source": "patent US5976523A",
  "about": "“Method for healing compromised tissues using pyrimidine derivatives” (Mitsui Pharmaceuticals, Inc., priority 1995, dated 1999)",
  "key": {"TMK1 cells [1]": {"test_system": "TMK1 cells", "test": "TMK1 cell migration in Boyden's chamber", "assay_type": "cell-based", "conditions": "4 hours", "method": "TMK1 cells, low-differentiating epithelial cells, were treated with trypsin. […] The culture medium in the lower well was then subjected to fixing and staining, and cells which had migrated therein were counted. Experiments were conducted concurrently in three chambers.\nEach value will be presented as a mean ±S.D. and with respect to each compound, numbers of cells will be presented in the order of a) control, b) each pyrimidine compound (whose concentration will be specifically indicated), c) 10 ng/ml of EGF, and d) a mixed solution of each pyrimidine compound + EGF."}, "PDGF-A mRNAs [2]": {"test_system": "PDGF-A mRNAs", "test": "Northern blot analysis of PDGF-A mRNA expression in cultured rat SMCs", "assay_type": "cell-based", "conditions": "vs serum-free medium", "method": "SMCs were prepared following the method proposed by Ross and Klebanoff in \"J. Cell. Biol.\", 50, 159 ff, 1971 with partial modifications. A rat thoracic aorta was excised. After the tunica externa was peeled off, the tunica media and the tunica intima were minced into 2-3 mm^2. The minced sections were placed standstill in a 25-cm^2 flask which contained Waymouth's MB 752/1 medium containing 10% FBS and 80 ng/ml of gentamycin (product of Schering-Plough Corp.), followed by incubation at 37° C. for 2 to 3 weeks in the presence of 5% carbon dioxide gas (primary culture). The same volume of a trypsin-EDTA solution was added to the flask. After the sections were treated at 37° C. for 5 minutes to peel off cells, the cells were diluted with 10% FBS-Waymouth's MB 752/1 medium and then subcultured (second generation). Subculture was successively conducted likewise whenever the SMC became confluent. In the following experiments, the cells from the 5th generation to the 12th generation were employed.\nAfter reach in confluence of cells, the cultured SMCs were cultured for 2 days in a serum-free medium to avoid influence of serum. The SMCs were then added with thrombin (1.0 U/ml) or serotonin (5 μM), followed by incubation at 37° C. for 6 hours under which bring about induction of PDGF-A mRNAs at the maximum. To prevent dissociation of ribosomes and mRNAs, cycloheximide (100 μg/ml) was added 5 minutes before cells were collected.\nPreparation of a polysome fraction and extraction of RNAs were conducted following the method proposed by Kasper, et al. in \"J. Biol. Chem.\", 267, 508 ff, 1992 with slight modifications. The cells, which had been collected by the treatment with trypsin, were washed with PBS containing cycloheximide (100 μg/ml). A cell precipitate was then added with 500 μl of a high-salt lysis buffer (20 mM Tris-HCl pH 7.5, 250 mM NaCl, 5 mM MgCl2, 0.1% Noni det P-40, 0.2% DOC) for homogenization. The homogenate was centrifuged under 12,000×g at 4° C. for 10 minutes. The resulting supernatant was added with 67 μl of a heparine mix (7.4 mg/ml heparine, 1.1M NaCl, 15 mM DTT and RNasin). 200 μl of the extract were layered on 5 ml of 0.5-1.25M linear sucrose gradient (which contained 20 mM Tris-HCl pH 7.4, 10 mM NaCl, 3 mM MgCl2), followed by centrifugation under 45,000 rpm for 90 minutes in a \"Hitachi RP55ST\". While monitoring the absorbance at 260 nm, ten (10) fractions were obtained. To prepare samples for the extraction of RNAs, the fractions were individually added with SDS and proteinase K to give final concentrations of 1% and 0.2 mg/ml, respectively. Subsequent to incubation at 37° C. for 1 hour, each fraction was extracted once with 1/2 volume of phenol, twice with 1/2 volume aliquots of chloroform, and once with the equal volume of chloroform, whereby proteins were removed. The water layer was added with glycogen (20 μg/ml) as a coprecipitant and then with 0.03M of sodium acetate, and RNAs were caused to precipitate with 2 volumes of ethanol.\nAfter RNAs were incubated at 65° C. for 5 minutes in a solution containing 60% of formamide, 5.9% of formaldehyde and the equal volume of MOPS buffer (10 mM MOPS pH 7.0, 4 mM NaOAc, 0.5 mM EDTA), electrophoresis was conducted across 1.2% agarose gels containing the equal volume of MOPS buffer so that RNAs were. isolated. After the gel was washed with 20 volumes of SSC, RNAs were blotted overnight to a Gene Screen Plus membrane by the capillary method. Fixing of the RNAs was conducted by exposing them for 1 minute at a distance of 10 cm from a 15-W sterilamp. Using a \"QuickHyb Hybridization Solution\" (product of Strategene Ltd.), hybridization was conducted following the instruction manual attached to the solution. Results of autoradiography were quantitated with reference to the NIH Image. […]"}, "PDGF-A mRNAs [3]": {"test_system": "PDGF-A mRNAs", "test": "Polysome distribution (translation) of PDGF-A mRNAs in rat SMCs", "assay_type": "cell-based", "method": "SMCs were prepared following the method proposed by Ross and Klebanoff in \"J. Cell. […] A rat thoracic aorta was excised. After the tunica externa was peeled off, the tunica media and the tunica intima were minced into 2-3 mm^2. The minced sections were placed standstill in a 25-cm^2 flask which contained Waymouth's MB 752/1 medium containing 10% FBS and 80 ng/ml of gentamycin (product of Schering-Plough Corp.), followed by incubation at 37° C. for 2 to 3 weeks in the presence of 5% carbon dioxide gas (primary culture). The same volume of a trypsin-EDTA solution was added to the flask. After the sections were treated at 37° C. for 5 minutes to peel off cells, the cells were diluted with 10% FBS-Waymouth's MB 752/1 medium and then subcultured (second generation). Subculture was successively conducted likewise whenever the SMC became confluent. In the following experiments, the cells from the 5th generation to the 12th generation were employed. After reach in confluence of cells, the cultured SMCs were cultured for 2 days in a serum-free medium to avoid influence of serum. The SMCs were then added with thrombin (1.0 U/ml) or serotonin (5 μM), followed by incubation at 37° C. for 6 hours under which bring about induction of PDGF-A mRNAs at the maximum. To prevent dissociation of ribosomes and mRNAs, cycloheximide (100 μg/ml) was added 5 minutes before cells were collected. […] Biol. Chem.\", 267, 508 ff, 1992 with slight modifications. The cells, which had been collected by the treatment with trypsin, were washed with PBS containing cycloheximide (100 μg/ml). A cell precipitate was then added with 500 μl of a high-salt lysis buffer (20 mM Tris-HCl pH 7.5, 250 mM NaCl, 5 mM MgCl2, 0.1% Noni det P-40, 0.2% DOC) for homogenization. The homogenate was centrifuged under 12,000×g at 4° C. for 10 minutes. The resulting supernatant was added with 67 μl of a heparine mix (7.4 mg/ml heparine, 1.1M NaCl, 15 mM DTT and RNasin). 200 μl of the extract were layered on 5 ml of 0.5-1.25M linear sucrose gradient (which contained 20 mM Tris-HCl pH 7.4, 10 mM NaCl, 3 mM MgCl2), followed by centrifugation under 45,000 rpm for 90 minutes in a \"Hitachi […]\". While monitoring the absorbance at 260 nm, ten (10) fractions were obtained. […] Subsequent to incubation at 37° C. for 1 hour, each fraction was extracted once with 1/2 volume of phenol, twice with 1/2 volume aliquots of chloroform, and once with the equal volume of chloroform, whereby proteins were removed. The water layer was added with glycogen (20 μg/ml) as a coprecipitant and then with 0.03M of sodium acetate, and RNAs were caused to precipitate with 2 volumes of ethanol. After RNAs were incubated at 65° C. for 5 minutes in a solution containing 60% of formamide, 5.9% of formaldehyde and the equal volume of MOPS buffer (10 mM MOPS pH 7.0, 4 mM NaOAc, 0.5 mM EDTA), electrophoresis was conducted across 1.2% agarose gels containing the equal volume of MOPS buffer so that RNAs were. isolated. After the gel was washed with 20 volumes of SSC, RNAs were blotted overnight to a Gene Screen Plus membrane by the capillary method. Fixing of the RNAs was conducted by exposing them for 1 minute at a distance of 10 cm from […]. Using a \"QuickHyb Hybridization Solution\" (product of Strategene Ltd.), hybridization was conducted following the instruction manual attached to the solution. Results of autoradiography were quantitated with reference to the NIH Image. […]"}, "TMK1 cells [4]": {"test_system": "TMK1 cells", "test": "Morphological change of TMK1 cells", "assay_type": "cell-based", "conditions": "EGF alone 10 ng/ml, day 1"}, "[5]": {"test_system": "primary cultured gastric mucosal cells", "test": "Wound repair model with primary cultured gastric mucosal cells", "assay_type": "cell-based, rabbit", "conditions": "for area of the wounded region (mean±S.D.): EGF alone 10 ng/ml", "method": "Primary cultured gastric mucosal cells were prepared by mechanically peeling and mincing the gastric mucosa of a rabbit having a body weight of 2 kg and then digesting the minced gastric mucosa with 0.07% collagenase. The primary cultured gastric mucosal cells were cultured at a cell concentration of 3.3×10^5 cells/ml in F-12 culture medium containing 10% fetal calf serum added therein. For this cultivation, a culture dish (60 mm in diameter) coated with collagen type I was used. […] Using an anti-BrdU antibody, the cells in the S phase were stained to identify proliferated cells.\nTheir effects on the process of restoration were measured under the above-described parameters. […] In each of the control group and the medicament-added groups, the area of the wounded region was measured at the 0th hour, 12th hour, 24th hour, 36th hour and 48th hour. The measurement results will be given in this order.\nThe control group and the groups added with the medicament at the respective concentrations were each subjected to the experiment with n=5. The results will each be presented as a (mean±S. D.) mm2. A test of significance was conducted relative to the control group. * stands for p<0.05, ** for p<0.01, *** for p<0.001. A further test of significance was conducted relative to a group added with 10 ng/ml of EGF. + stands for p<0.05, and ++ for <0.01."}},
  "note": "Structures can show the parent of a compound that is named as a salt.",
  "data": [
    {"compound": "CN1C(=O)Cc2cnc(N3CCCCC3)nc21", "values": [
      {"measurement": "numbers of cells counted (migrated), mean ±S.D.", "setting": "TMK1 cells [1]; compound 0.1 mM + EGF 10 ng/ml", "result": "20.9±3.9"},
      {"measurement": "numbers of cells counted (migrated), mean ±S.D.", "setting": "TMK1 cells [1]; compound alone, 0.1 mM", "result": "2.9±1.0"}
    ]},
    {"compound": "CCC1CCN(c2ncc3c(n2)N(C)C(=O)C3)CC1", "note": "[2-(4-ethylpiperidino)-7-methyl-6-oxo-5,6-dihydro(7H)pyrro[2,3-d]pyrimidinemaleate]", "values": [
      {"measurement": "numbers of cells counted (migrated), mean ±S.D.", "setting": "TMK1 cells [1]; compound 0.1 mM + EGF 10 ng/ml", "result": "144±3.1"},
      {"measurement": "numbers of cells counted (migrated), mean ±S.D.", "setting": "TMK1 cells [1]; compound alone, 0.1 mM", "result": "28.6±18.4"}
    ]},
    {"compound": "CN1C(=O)C(C)(C)c2cnc(N3CCCCC3)nc21", "note": "[2-piperidino-5,5,7-trimethyl-6-oxo-5,6-dihydro(7H)pyrro[3,4-d]pyrimidine maleate]", "values": [
      {"measurement": "numbers of cells counted (migrated), mean ±S.D.", "setting": "TMK1 cells [1]; compound 0.1 mM + EGF 10 ng/ml", "result": "147.2±13.2"},
      {"measurement": "numbers of cells counted (migrated), mean ±S.D.", "setting": "TMK1 cells [1]; compound alone, 0.1 mM", "result": "33±12.6"}
    ]},
    {"compound": "NCCc1c[nH]c2ccc(O)cc12", "note": "[serotonin, reference compound]", "values": [
      {"measurement": "fold induction at 5 µM", "setting": "PDGF-A mRNAs [2]; Rattus norvegicus, 6 h, sole addition of serotonin (5 μM), read-out: expression amount of 1.7 kb PDGF-A mRNAs compared with control", "result": 1.7},
      {"measurement": "translation state of the three kinds of PDGF-A mRNAs", "setting": "PDGF-A mRNAs [3]; serotonin alone", "result": "all in translated forms"}
    ]},
    {"compound": "EGF: epidermal growth factor", "values": [
      {"measurement": "morphological changes", "setting": "TMK1 cells [4]", "result": "significant morphological changes were observed as early as day 1, presenting scattering"},
      {"measurement": "area of the wounded region (mean±S.D.)", "setting": "[5]; 0th hour", "result": "2.06±0.06", "unit": "mm2"},
      {"measurement": "area of the wounded region (mean±S.D.)", "setting": "[5]; 12th hour", "result": "0.91±0.03", "unit": "mm2"},
      {"measurement": "area of the wounded region (mean±S.D.)", "setting": "[5]; 24th hour", "result": "0.46±0.15", "unit": "mm2"},
      {"measurement": "area of the wounded region (mean±S.D.)", "setting": "[5]; 36th hour", "result": "0.08±0.04", "unit": "mm2"},
      {"measurement": "area of the wounded region (mean±S.D.)", "setting": "[5]; 48th hour", "result": 0, "unit": "mm2"},
      {"measurement": "effect on migration, proliferation and restoration of the cells", "setting": "[5]; EGF alone 1-10 ng/ml", "result": "promoted migration and proliferation of the cells in a concentration-dependent manner and accelerated the speed of restoration"}
    ]},
    {"compound": "thrombin", "values": [
      {"measurement": "expression amount of 1.7 kb PDGF-A mRNAs compared with control", "setting": "PDGF-A mRNAs [2]; sole addition of thrombin (1.0 U/ml)", "result": 1.5, "unit": "times"},
      {"measurement": "translation state of 1.7 kb, 2.3 kb and 2.9 kb PDGF-A mRNAs", "setting": "PDGF-A mRNAs [3]; thrombin alone", "result": "both those in a translated form and those in the non-translated form"}
    ]}
  ]
}
